For test [1], the target named is T1, Peptide Deformylase (PDF) (Escherichia coli, UniProt P0A6K3).
T1 construct: made in house
Description: Bacterial peptide deformylase (PDF) assay, colorimetric cell free, enzyme from E. coli. Type of test: biochemical. The source says: (§1) To find inhibitors of Peptide Deformylase (PDF), a colorimetric cell free assay for measuring the enzymatic activity of PDF has been adapted to the microtiter plate format (96 wells). The assay comprises three components, purified PDF, f-Met-Ala as substrate and TNBS as the detecting agent of primary amino groups. The resulting TNP_NH-Met-Ala sulfite complex can be detected at 420 nm. PDF enzymes, containing Fe^2+ as the native metal, are purified and are stabilized by the addition of tris(2-carboxyethyl)phosphine (TCEP).
(§2) The IC50 value of a compound of the invention as a bacterial PDF inhibitor was determined using the following assay.
(§3) Assay buffer 0.1 M MOPS pH was adjusted to 7.2 with NaOH, containing 0.25 M NaCl, 100 μg/mL catalase and 1 mg/mL BSA.
(§4) E. coli enzyme (2.5 mg/ml) 10 μl+290 μl Assay buffer, 1 μl per ml enzyme mix. S. aureus (15 mg/ml) 10 μl+990 μl Assay buffer, 0.3 μl per ml enzyme mix.
(§5) Substrate mix: 10 mM f-Met-Ala was made up from 200 mM f-Met-Ala in methanol with assay buffer.
(§6) TNBS solution: Freshly dilute 1 M TNBS stock solution diluted 1:10 with water.
(§7) Buffer C: 0.5 M borate buffer adjusted to pH 9.5 with NaOH.
(§8) Buffer D: 0.2 ml of freshly prepared 0.5 M Na2SO3 was mixed with 9.8 mL of 0.5M NaH2PO4.
(§9) Inhibitor solution: 2 mM Sodium 4-(hydroxymercurio)benzoate in assay buffer.
(§10) Compound mix: Compound of formula I dissolved in DMSO in a 10 mg/mL stock solution. Further dilutions were made in DMSO in the concentration range between 0.05 to 100 mM.
(§11) The assay was performed in a 96 Microtiter plate containing test compound. To each well containing test compound mix was added 75 microliter of enzyme mix from E. coli followed by the addition of 25 microliter of substrate mix. The resulting mix was incubated for 30 minutes at room temperature with shaking. TNBS solution (50 microliter/well) was added and the resulting mixture was incubated for 15 minutes under shaking. Buffer C was then added (20 microliter/well). After incubating at room temperature for 15 minutes under shaking, buffer D was added (50 microliter/well). The optical […] was then measured at 420 nm, thereby determining the IC50 value.

Test [2] concerns the target T2, Peptide Deformylase (PDF) (Staphylococcus aureus, UniProt P68826).
T2 construct: made in house
T2 sequence (P68826 1-183): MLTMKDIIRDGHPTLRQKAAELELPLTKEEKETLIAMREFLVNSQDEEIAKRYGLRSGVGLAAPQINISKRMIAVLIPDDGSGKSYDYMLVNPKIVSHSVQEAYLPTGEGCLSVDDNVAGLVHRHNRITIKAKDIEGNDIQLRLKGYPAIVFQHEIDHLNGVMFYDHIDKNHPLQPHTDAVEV
Briefly: Bacterial peptide deformylase (PDF) assay, colorimetric cell free, enzyme from S. aureus. The test is classed as biochemical. To be noted: f-Met-Ala substrate, TNBS detection at 420 nm.
Excerpt: as §1, §2, §3, §4, §5, §6, §7, §8, §9, §10, §11
The assay was repeated using enzyme mix from S. aureus.

In patent publication US20070066672A1, “Benzimidazole derivatives and use thereof as peptide deformylase inhibitors” (Arpida A/S, priority 2003, published 2007) one finds IC50 data, which are given here for 23 molecules.

Usually IC50 stands for the midpoint of a concentration-inhibition curve.

SMILES strings stand for the structures.

T1 sequence (P0A6K3 whole entry): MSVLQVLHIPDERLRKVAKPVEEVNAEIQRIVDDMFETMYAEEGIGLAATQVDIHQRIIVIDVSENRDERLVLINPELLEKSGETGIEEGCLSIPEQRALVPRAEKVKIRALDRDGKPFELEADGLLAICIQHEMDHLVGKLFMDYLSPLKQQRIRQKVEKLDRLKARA

With `COC(=O)CNC(=O)c1ccc2c(c1)nc(C(Cc1ccccc1)NC(=O)CCC(=O)O)n2CCO` (stereo not shown) [Example 27, N-{1-[1-(2-Hydroxy-ethyl)-5-(methoxycarbonylmethyl-carbamoyl)-1H-benzoimidazol-2-yl]-2-phenyl-ethyl}-succinamic acid], the concentration for half-maximal inhibition (IC50) in test [1] came out at 41.8 µM; in test [2], 27700 nM.

`COC(=O)CNC(=O)c1ccc2c(c1)nc(C(Cc1ccccc1)NC(=O)CCC(=O)NO)n2Cc1ccco1` (stereo not shown) [Example 39, ({1-Furan-2-ylmethyl-2-[1-(3-hydroxycarbamoyl-propionylamino)-2-phenyl-ethyl]-1H-benzoimidazole-5-carbonyl}-amino)-acetic acid methyl ester] gave a half-inhibitory concentration (IC50) in test [1] of 1.5 µM.

`COC(=O)CNC(=O)c1ccc2c(c1)nc(C(CCCCN)NC(=O)CCS)n2CC1CCCCC1` (stereo not shown) [Example 19, ({2-[5-Amino-1-(3-mercapto-propionylamino)-pentyl]-1-cyclohexylmethyl-1H-benzoimidazole-5-carbonyl}-amino)-acetic acid methyl ester]: the IC50 in test [1] was determined as 38.1 µM; in test [2], 27100 nM.

Take `COC(=O)CNC(=O)c1ccc2c(c1)nc(C(Cc1ccccc1)NC(=O)CCS)n2Cc1ccc(Cl)cc1` (stereo not shown) [Example 2, ({1-(4-Chloro-benzyl)-2-[1-(3-mercapto-propionylamino)-2-phenyl-ethyl]-1H-benzoimidazole-5-carbonyl}-amino)-acetic acid methyl ester]: the half-maximal inhibitory concentration (IC50) was determined as 22.1 µM in test [1] and 6100 nM in test [2].

Consider `COC(=O)CNC(=O)c1ccc2c(c1)nc(C(Cc1cccc3ccccc13)NC(=O)CCC(=O)O)n2Cc1ccccc1` (stereo not shown) [Example 30, N-{1-[1-Benzyl-5-(methoxycarbonylmethyl-carbamoyl)-1H-benzoimidazol-2-yl]-2-naphthalen-1-yl-ethyl}-succinamic acid], for which inhibition in test [1] was half-maximal at 7 µM (IC50).

Take `COC(=O)CNC(=O)c1ccc2c(c1)nc(C(CCSC)NC(=O)CCC(=O)O)n2Cc1ccccc1` (stereo not shown) [Example 3, N-{1-[1-Benzyl-5-(methoxycarbonylmethyl-carbamoyl)-1H-benzoimidazol-2-yl]-3-methylsulfanyl-propyl}-succinamic acid]: the IC50 is 80 µM in test [1] and 31400 nM in test [2].

For the molecule `COC(=O)CNC(=O)c1ccc2c(c1)nc(C(CC(C)C)NC(=O)CCC(=O)O)n2C1CC1` (stereo not shown) [Example 13, N-{1-[1-Cyclopropyl-5-(methoxycarbonylmethyl-carbamoyl)-1H-benzoimidazol-2-yl]-3-methyl-butyl}-succinamic acid], the concentration for half-maximal inhibition (IC50) in test [1] came to 4 µM; in test [2], 119 nM.

With `COC(=O)CNC(=O)c1ccc2c(c1)nc(C(CCCCN)NC(=O)CCC(=O)O)n2CC1CCCCC1` (stereo not shown) [Example 24, N-{5-Amino-1-[1-cyclohexylmethyl-5-(methoxycarbonylmethyl-carbamoyl)-1H-benzoimidazol-2-yl]-pentyl}-succinamic acid], the IC50 is 13.1 µM in test [1] and 1400 nM in test [2].

For `CCCCn1c(C(Cc2cccc3ccccc23)NC(=O)CCC(=O)O)nc2cc(C(=O)NCC(=O)OC)ccc21` (stereo not shown) [Example 18], the IC50 in test [1] is 2.7 µM; in test [2] it was 74 nM.

For `CCC(NC(=O)CCC(=O)NO)c1nc2cc(C(=O)NCC(=O)OC)ccc2n1Cc1ccccc1` (stereo not shown) [Example 32, ({1-Benzyl-2-[1-(3-hydroxycarbamoyl-propionylamino)-propyl]-1H-benzoimidazole-5-carbonyl}-amino)-acetic acid methyl ester], the IC50 in test [1] was determined as 0.045 µM; in test [2], 67 nM.

`CCCCn1c(C(Cc2ccccc2)NC(=O)CCC(=O)NO)nc2cc(C(=O)NCC(=O)OC)ccc21` (stereo not shown) [Example 47, ({1-Butyl-2-[1-(3-hydroxycarbamoyl-propionylamino)-2-phenyl-ethyl]-1H-benzoimidazole-5-carbonyl}-amino)-acetic acid methyl ester]: the values for the 50% inhibitory concentration (IC50) in test [1] and in test [2] were 5.3 µM and 19 nM, respectively.

Consider `COC(=O)CNC(=O)c1ccc2c(c1)nc(C(Cc1cccc3ccccc13)NC(=O)CCC(=O)O)n2CCc1cccs1` (stereo not shown) [Example 17, N-{1-[5-(Methoxycarbonylmethyl-carbamoyl)-1-(2-thiophen-2-yl-ethyl)-1H-benzoimidazol-2-yl]-2-naphthalen-1-yl-ethyl}-succinamic acid], for which the half-inhibitory concentration (IC50) in test [1] is 0.071 µM; in test [2] it was 99 nM.

Turning to `CCC(NC(=O)CCS)c1nc2cc(C(=O)NCC(=O)OC)ccc2n1C1CC1` (stereo not shown) [Example 1, ({1-Cyclopropyl-2-[1-(3-mercapto-propionylamino)-propyl]-1H-benzoimidazole-5-carbonyl}-amino)-acetic acid methyl ester], the half-inhibitory concentration (IC50) in test [1] is 65 µM; in test [2], 45400 nM.

`COC(=O)CNC(=O)c1ccc2c(c1)nc(C(CC(C)C)NC(=O)CCC(=O)NO)n2C1CC1` (stereo not shown) [Example 33, ({1-Cyclopropyl-2-[1-(3-hydroxycarbamoyl-propionylamino)-3-methyl-butyl]-1H-benzoimidazole-5-carbonyl}-amino)-acetic acid methyl ester] registered an IC50 in test [2] of 496 nM. That is a sub-micromolar value.

Take `COC(=O)CNC(=O)c1ccc2c(c1)nc(C(CC(C)C)NC(=O)CCC(=O)O)n2Cc1ccccc1` (stereo not shown) [Example 15, N-{1-[1-Benzyl-5-(methoxycarbonylmethyl-carbamoyl)-1H-benzoimidazol-2-yl]-3-methyl-butyl}-succinamic acid]: the IC50 in test [1] stood at 3.3 µM; in test [2], 4000 nM.

In the case of `CCC(NC(=O)CCC(=O)O)c1nc2cc(C(=O)NCC(=O)OC)ccc2n1Cc1ccco1` (stereo not shown) [Example 11, N-{1-[1-Furan-2-ylmethyl-5-(methoxycarbonylmethyl-carbamoyl)-1H-benzoimidazol-2-yl]-propyl}-succinamic acid], the IC50 was found to be 2.8 µM in test [1] and 1400 nM in test [2].

On to `CCC(NC(=O)CCC(=O)O)c1nc2cc(C(=O)NCC(=O)OC)ccc2n1Cc1ccccc1` (stereo not shown) [Example 12, N-{1-[1-Benzyl-5-(methoxycarbonylmethyl-carbamoyl)-1H-benzoimidazol-2-yl]-propyl}-succinamic acid], for which the results for the IC50 in test [1] and in test [2] were 4.8 µM and 68 nM, respectively.

In turn, `CCCCn1c(C(Cc2cccc3ccccc23)NC(=O)CCC(=O)NO)nc2cc(C(=O)NCC(=O)OC)ccc21` (stereo not shown) [Example 45, ({1-Butyl-2-[1-(3-hydroxycarbamoyl-propionylamino)-2-naphthalen-1-yl-ethyl]-1H-benzoimidazole-5-carbonyl}-amino)-acetic acid methyl ester] showed a concentration for half-maximal inhibition (IC50) in test [1] of 5.8 µM. That is a single-digit micromolar value.

In test [2], `COC(=O)CNC(=O)c1ccc2c(c1)nc(C(CC(C)C)NC(=O)CCC(=O)NO)n2Cc1ccccc1` (stereo not shown) [Example 35, ({1-Benzyl-2-[1-(3-hydroxycarbamoyl-propionylamino)-3-methyl-butyl]-1H-benzoimidazole-5-carbonyl}-amino)-acetic acid methyl ester] came in with an IC50 of 804 nM.

In test [1], `COC(=O)CNC(=O)c1ccc2c(c1)nc(C(CCSC)NC(=O)CCC(=O)NO)n2CC1CCCCC1` (stereo not shown) [Example 37, ({1-Cyclohexylmethyl-2-[1-(3-hydroxycarbamoyl-propionylamino)-3-methylsulfanyl-propyl]-1H-benzoimidazole-5-carbonyl}-amino)-acetic acid methyl ester] had an IC50 of 0.317 µM. That is a sub-micromolar value.

In turn, `COC(=O)CNC(=O)c1ccc2c(c1)nc(C(CCSC)NC(=O)CCC(=O)NO)n2C1CC1` (stereo not shown) [Example 36, ({1-Cyclopropyl-2-[1-(3-hydroxycarbamoyl-propionylamino)-3-methylsulfanyl-propyl]-1H-benzoimidazole-5-carbonyl}-amino)-acetic acid methyl ester] showed a half-inhibitory concentration (IC50) in test [2] of 1500 nM.

In the case of `COC(=O)CNC(=O)c1ccc2c(c1)nc(C(Cc1cccc3ccccc13)NC(=O)CCC(=O)NO)n2CCc1cccs1` (stereo not shown) [Example 44, {[2-[1-(3-Hydroxycarbamoyl-propionylamino)-2-naphthalen-1-yl-ethyl]-1-(2-thiophen-2-yl-ethyl)-1H-benzoimidazole-5-carbonyl]-amino}-acetic acid methyl ester], in test [1], the IC50 turned out to be 3.1 µM. In other words, the single-digit micromolar range.

For the molecule `CCCCn1c(C(CC(C)C)NC(=O)CCC(=O)NO)nc2cc(C(=O)NCC(=O)OC)ccc21` (stereo not shown) [Example 34, ({1-Butyl-2-[1-(3-hydroxycarbamoyl-propionylamino)-3-methyl-butyl]-1H-benzoimidazole-5-carbonyl}-amino)-acetic acid methyl ester], the concentration for half-maximal inhibition (IC50) in test [2] came to 2270 nM. This counts as single-digit micromolar.
